Source: patent publication EP4670717A1, “PYRROLIDINE-FUSED MYRTANOL DERIVATIVES AS INHIBITORS AND/OR DEGRADERS OF IDO1 UND USE THEREOF” (Max-Planck-Gesellschaft zur Förderung der Wissenschaften …, priority 2024, dated 2025)

target: T1, IDO1 (Homo sapiens, UniProt P14902); assay: Kyn assay in BxPC-3 cells (Kyn levels after IFN-γ and Trp); assay type: cell-based; settings: BxPC-3 cells incubated with IFN-γ, Trp and the compounds for 48 h; read-out: Kyn assay IC50 ± SD;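 note: kyn levels expressed relative to DMSO-treated control cells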
T1 construct: BxPC3 cells were seeded in phenol red-free RPMI 1640 medium; endogenous in cells; host or cells: BxPC3 cells stimulated with IFN-γ (50 ng/mL)
T1 sequence (P14902 whole entry): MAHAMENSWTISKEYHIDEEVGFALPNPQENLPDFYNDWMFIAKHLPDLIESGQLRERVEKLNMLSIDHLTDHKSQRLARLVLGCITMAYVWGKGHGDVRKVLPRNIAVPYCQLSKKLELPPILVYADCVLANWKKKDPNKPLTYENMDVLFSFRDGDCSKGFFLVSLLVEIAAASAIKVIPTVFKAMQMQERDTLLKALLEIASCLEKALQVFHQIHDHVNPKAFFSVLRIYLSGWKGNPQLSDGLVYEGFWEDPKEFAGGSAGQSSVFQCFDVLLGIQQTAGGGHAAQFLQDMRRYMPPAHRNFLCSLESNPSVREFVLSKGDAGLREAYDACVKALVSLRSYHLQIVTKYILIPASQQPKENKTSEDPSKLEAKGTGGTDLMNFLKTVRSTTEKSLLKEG
Method: BxPC3 cells were seeded in phenol red-free RPMI 1640 medium in 1536-well or 384-well plates (Greiner #782086, Corning #3770) 24 h prior to the addition of compounds, IFN-γ (50 ng/mL, PeproTech) and L-Trp (380 µM, Sigmal-Aldrich). After 48 h of incubation, first cell viability was accessed by the addition of Hoechst-33342. Afterwards, trichloroacetic acid (TCA, Sigma-Aldrich) was added to a final concentration of 7 % and incubated for 10 min prior to a centrifugation step of 10 min at 1620 × g. Kyn levels were determined by means of the Kyn sensor^7 at a final concentration of 17.5 µM in sensor buffer (50 mM H3PO4 and 120 mM NaCl (pH=1)). Fluorescence intensity (excitation: 535 nm, emission: 595 nm) was measured using a Spectramax Paradigm reader (Molecular Devices). Data were normalized to the values for cells that were treated with DMSO.
For the manual assay, BxPC3 or SKOV3 cells were seeded in clear 96-well or 384-well plates, respectively, 24 h prior to compound treatment and IFN-γ (50 or 5 ng/mL, respectively) and L-Trp (380 µM) addition as described before.^7 48 h after treatment, TCA was added and Kyn levels were detected by means of 2 % w/v of p-DMAB (Ehrlich reagent) in acetic acid as described by Braun et al^29. The absorbance of the Ehrlich reagent was detected at 492 nm and at 650 nm as background control was measured on Spark® multimode microplate plate reader (Tecan, Austria). Kyn levels were determined by subtracting the absorbance value at 650 nm and presented relative to the DMSO control. Dose-response curves and IC50 values were generated and fitted with GraphPad Prism 6.0 (GraphPad software, USA) using four-parameter variable slope non-linear regression curve fit.
Cells were incubated with IFN-γ, Trp and the compounds for 48 h prior to detection of Kyn levels.

| SMILES | IC50 |
| --- | --- |
| CCc1ccc(NC(=O)OC[C@]23CN(S(=O)(=O)c4ccc(C(C)(C)C)cc4)C[C@H]2C[C@H]2C[C@@H]3C2(C)C)cc1 [compound 2, ((3aS,4R,6R,7aS)-2-((4-(tert-butyl)phenyl)sulfonyl)-5,5-dimethyloctahydro-3aH-4,6-methanoisoindol-3a-yl)methyl (4-ethylphenyl)carbamate] | 1 to 5 µM |
| Cc1ccc(NC(=O)OC[C@]23CN(S(=O)(=O)c4ccc(C(C)(C)C)cc4)C[C@H]2C[C@H]2C[C@@H]3C2(C)C)c(C)c1 [compound 7, ((3aS,4R,6R,7aS)-2-((4-(tert-butyl)phenyl)sulfonyl)-5,5-dimethyloctahydro-3aH-4,6-methanoisoindol-3a-yl)methyl (2,4-dimethylphenyl)carbamate] | 1 to 5 µM |
| CC(C)(C)c1ccc(S(=O)(=O)N2C[C@H]3C[C@H]4C[C@H](C4(C)C)[C@@]3(COC(=O)Nc3ccc(Cl)cc3)C2)cc1 [compound 9, ((3aS,4R,6R,7aS)-2-((4-(tert-butyl)phenyl)sulfonyl)-5,5-dimethyloctahydro-3aH-4,6-methanoisoindol-3a-yl)methyl (4-chlorophenyl)carbamate] | 0.2 to 1 µM |
| CC(C)(C)c1ccc(S(=O)(=O)N2C[C@H]3C[C@H]4C[C@H](C4(C)C)[C@@]3(COC(=O)Nc3ccccc3I)C2)cc1 [compound 12, ((3aS,4R,6R,7aS)-2-((4-(tert-butyl)phenyl)sulfonyl)-5,5-dimethyloctahydro-3aH-4,6-methanoisoindol-3a-yl)methyl (2-iodophenyl)carbamate] | 0.2 to 1 µM |
| CC(C)(C)c1ccc(S(=O)(=O)N2C[C@H]3C[C@H]4C[C@H](C4(C)C)[C@@]3(COC(=O)Nc3cccc(Br)c3)C2)cc1 [compound 14, ((3aS,4R,6R,7aS)-2-((4-(tert-butyl)phenyl)sulfonyl)-5,5-dimethyloctahydro-3aH-4,6-methanoisoindol-3a-yl)methyl (3-bromophenyl)carbamate] | 5 to 10 µM |
| CC(C)(C)c1ccc(S(=O)(=O)N2C[C@H]3C[C@H]4C[C@H](C4(C)C)[C@@]3(COC(=O)Nc3ccc(C#CCCO)cc3)C2)cc1 [compound 18, ((3aS,4R,6R,7aS)-2-((4-(tert-butyl)phenyl)sulfonyl)-5,5-dimethyloctahydro-3aH-4,6-methanoisoindol-3a-yl)methyl (4-(4-hydroxybut-1-yn-1-yl)phenyl)carbamate] | 1 to 5 µM |
| COc1ccc(NC(=O)OC[C@]23CN(S(=O)(=O)c4ccc(C(C)(C)C)cc4)C[C@H]2C[C@H]2C[C@@H]3C2(C)C)cc1 [compound 20, ((3aS,4R,6R,7aS)-2-((4-(tert-butyl)phenyl)sulfonyl)-5,5-dimethyloctahydro-3aH-4,6-methanoisoindol-3a-yl)methyl (4-methoxyphenyl)carbamate] | 1 to 5 µM |
| CC(C)(C)c1ccc(S(=O)(=O)N2C[C@H]3C[C@H]4C[C@H](C4(C)C)[C@@]3(COC(=O)Nc3ccc(C#N)cc3)C2)cc1 [compound 23, ((3aS,4R,6R,7aS)-2-((4-(tert-butyl)phenyl)sulfonyl)-5,5-dimethyloctahydro-3aH-4,6-methanoisoindol-3a-yl)methyl (4-cyanophenyl)carbamate] | 1 to 5 µM |
| Cc1ccc(NC(=O)OC[C@]23CN(S(=O)(=O)C4CCCCC4)C[C@H]2C[C@H]2C[C@@H]3C2(C)C)cc1 [compound 31, ((3aS,4R,6R,7aS)-2-(cyclohexylsulfonyl)-5,5-dimethyloctahydro-3aH-4,6-methanoisoindol-3a-yl)methyl p-tolylcarbamate] | 5 to 10 µM |
| CC(C)c1ccc(S(=O)(=O)N2C[C@H]3C[C@H]4C[C@H](C4(C)C)[C@@]3(COC(=O)Nc3ccc(I)cc3)C2)cc1 [compound 43, ((3aS,4R,6R,7aS)-2-((4-isopropylphenyl)sulfonyl)-5,5-dimethyloctahydro-3aH-4,6-methanoisoindol-3a-yl)methyl (4-iodophenyl)carbamate] | < 0.2 µM |
| CC1(C)[C@H]2C[C@@H]3CN(S(=O)(=O)c4ccc(-c5ccccc5)cc4)C[C@]3(COC(=O)Nc3ccc(I)cc3)[C@@H]1C2 [compound 44, ((3aS,4R,6R,7aS)-2-([1,1'-biphenyl]-4-ylsulfonyl)-5,5-dimethyloctahydro-3aH-4,6-methanoisoindol-3a-yl)methyl (4-iodophenyl)carbamate] | 0.2 to 1 µM |
| CC1(C)[C@H]2C[C@@H]3CN(S(=O)(=O)c4ccc(C5CCCCC5)cc4)C[C@]3(COC(=O)Nc3ccc(I)cc3)[C@@H]1C2 [compound 45, ((3aS,4R,6R,7aS)-2-((4-cyclohexylphenyl)sulfonyl)-5,5-dimethyloctahydro-3aH-4,6-methanoisoindol-3a-yl)methyl (4-iodophenyl)carbamate] | 1 to 5 µM |
| CC1(C)CCC(C)(C)c2cc(S(=O)(=O)N3C[C@H]4C[C@H]5C[C@H](C5(C)C)[C@@]4(COC(=O)Nc4ccc(I)cc4)C3)ccc21 [compound 46] | 0.2 to 1 µM |
| CC(C)(C)Cc1ccc(S(=O)(=O)N2C[C@H]3C[C@H]4C[C@H](C4(C)C)[C@@]3(COC(=O)Nc3ccc(I)cc3)C2)cc1 [compound 47, ((3aS,4R,6R,7aS)-5,5-dimethyl-2-((4-neopentylphenyl)sulfonyl)octahydro-3aH-4,6-methanoisoindol-3a-yl)methyl (4-iodophenyl)carbamate] | 0.2 to 1 µM |

Other lines, results leading:

| IC50 | SMILES |
| --- | --- |
| 5 to 10 µM | CC(C)(C)c1ccc(S(=O)(=O)N2C[C@H]3C[C@H]4C[C@H](C4(C)C)[C@@]3(COC(=O)Nc3ccccc3)C2)cc1 [compound 6, ((3aS,4R,6R,7aS)-2-((4-(tert-butyl)phenyl)sulfonyl)-5,5-dimethyloctahydro-3aH-4,6-methanoisoindol-3a-yl)methyl phenylcarbamate] |
| 0.2 to 1 µM | CC(C)(C)c1ccc(S(=O)(=O)N2C[C@H]3C[C@H]4C[C@H](C4(C)C)[C@@]3(COC(=O)Nc3ccc(Br)cc3)C2)cc1 [compound 10, ((3aS,4R,6R,7aS)-2-((4-(tert-butyl)phenyl)sulfonyl)-5,5-dimethyloctahydro-3aH-4,6-methanoisoindol-3a-yl)methyl (4-bromophenyl)carbamate] |
| 0.2 to 1 µM | CC(C)(C)c1ccc(S(=O)(=O)N2C[C@H]3C[C@H]4C[C@H](C4(C)C)[C@@]3(COC(=O)Nc3ccccc3Br)C2)cc1 [compound 13, ((3aS,4R,6R,7aS)-2-((4-(tert-butyl)phenyl)sulfonyl)-5,5-dimethyloctahydro-3aH-4,6-methanoisoindol-3a-yl)methyl (2-bromophenyl)carbamate] |
| 1 to 5 µM | Cc1ccc(NC(=O)OC[C@]23CN(S(=O)(=O)C(C)C)C[C@H]2C[C@H]2C[C@@H]3C2(C)C)cc1 [compound 30, ((3aS,4R,6R,7aS)-2-(isopropylsulfonyl)-5,5-dimethyloctahydro-3aH-4,6-methanoisoindol-3a-yl) methyl p-tolylcarbamate] |
| 1 to 5 µM | Cc1ccc(NC(=O)OC[C@]23CN(S(=O)(=O)c4ccc(C(F)(F)F)cc4)C[C@H]2C[C@H]2C[C@@H]3C2(C)C)cc1 [compound 32, ((3aS,4R,6R,7aS)-5,5-dimethyl-2-((4-(trifluoromethyl)phenyl)sulfonyl)octahydro-3aH-4,6-methanoisoindol-3a-yl)methyl p-tolylcarbamate] |
| 1 to 5 µM | Cc1ccc(NC(=O)OC[C@]23CN(S(=O)(=O)c4ccc(OC(F)(F)F)cc4)C[C@H]2C[C@H]2C[C@@H]3C2(C)C)cc1 [compound 34, ((3aS,4R,6R,7aS)-5,5-dimethyl-2-((4-(trifluoromethoxy)phenyl)sulfonyl)octahydro-3aH-4,6-methanoisoindol-3a-yl)methyl p-tolylcarbamate] |
| 1 to 5 µM | Cc1ccc(NC(=O)OC[C@]23CN(S(=O)(=O)c4ccc(C5(C(F)(F)F)N=N5)cc4)C[C@H]2C[C@H]2C[C@@H]3C2(C)C)cc1 [compound 35, ((3aS,4R,6R,7aS)-5,5-dimethyl-2-((4-(3-(trifluoromethyl)-3H-diazirin-3-yl)phenyl)sulfonyl)octahydro-3aH-4,6-methanoisoindol-3a-yl)methyl p-tolylcarbamate] |
| 5 to 10 µM | Cc1ccc(NC(=O)OC[C@]23CN(S(=O)(=O)c4ccccc4Br)C[C@H]2C[C@H]2C[C@@H]3C2(C)C)cc1 [compound 36, ((3aS,4R,6R,7aS)-2-((2-bromophenyl)sulfonyl)-5,5-dimethyloctahydro-3aH-4,6-methanoisoindol-3a-yl)methyl p-tolylcarbamate] |
| 1 to 5 µM | CC1(C)[C@H]2C[C@@H]3CN(S(=O)(=O)c4ccccc4)C[C@]3(COC(=O)Nc3ccc(I)cc3)[C@@H]1C2 [compound 37, ((3aS,4R,6R,7aS)-5,5-dimethyl-2-(phenylsulfonyl)octahydro-3aH-4,6-methanoisoindol-3a-yl)methyl (4-iodophenyl)carbamate] |
| 0.2 to 1 µM | CC1(C)[C@H]2C[C@@H]3CN(S(=O)(=O)c4ccc5ccccc5c4)C[C@]3(COC(=O)Nc3ccc(I)cc3)[C@@H]1C2 [compound 38, ((3aS,4R,6R,7aS)-5,5-dimethyl-2-(naphthalen-2-ylsulfonyl)octahydro-3aH-4,6-methanoisoindol-3a-yl)methyl (4-iodophenyl)carbamate] |
| 0.2 to 1 µM | Cc1ccccc1S(=O)(=O)N1C[C@H]2C[C@H]3C[C@H](C3(C)C)[C@@]2(COC(=O)Nc2ccc(I)cc2)C1 [compound 39, ((3aS,4R,6R,7aS)-5,5-dimethyl-2-(o-tolylsulfonyl)octahydro-3aH-4,6-methanoisoindol-3a-yl)methyl (4-iodophenyl)carbamate] |
| 1 to 5 µM | Cc1cccc(S(=O)(=O)N2C[C@H]3C[C@H]4C[C@H](C4(C)C)[C@@]3(COC(=O)Nc3ccc(I)cc3)C2)c1 [compound 40, ((3aS,4R,6R,7aS)-5,5-dimethyl-2-(m-tolylsulfonyl)octahydro-3aH-4,6-methanoisoindol-3a-yl)methyl (4-iodophenyl)carbamate] |
| 0.2 to 1 µM | Cc1ccc(S(=O)(=O)N2C[C@H]3C[C@H]4C[C@H](C4(C)C)[C@@]3(COC(=O)Nc3ccc(I)cc3)C2)cc1 [compound 41, ((3aS,4R,6R,7aS)-5,5-dimethyl-2-tosyloctahydro-3aH-4,6-methanoisoindol-3a-yl)methyl (4-iodophenyl)carbamate] |
